Patent publication US12286437B2, “Cardiac sarcomere inhibitors” (Cytokinetics, Inc., priority 2021, dated 2025)

Tests used:
[1] = test system: bovine cardiac myofibrils; assay: Myofibril assay (ATPase activity of skinned bovine cardiac myofibrils, PK/LDH-coupled); type: biochemical; details: inhibition of steady-state ATPase of bovine cardiac myofibrils; CaCl2 for 50% or 75% activation
Summary of the method: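 Steady-state ATPase of detergent-skinned bovine left-ventricular myofibrils (1 mg/mL), PK/LDH-coupled NADH read at 340 nm, in PIPES/MgCl2 buffer pH 6.8 with 50 μM ATP, 0.6 mM EGTA and CaCl2 set for 50% or 75% activation. Inhibition of activity measured.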

[2] = Monkey cassette dosing pharmacokinetics; type: in vivo; details: IV
CYP1A2 = molecular target: T1, CYP1A2 (Homo sapiens, UniProt P05177); assay: Time-dependent inhibition of CYP1A2 in human liver microsomes; type: in vitro ADME; details: fold change
T1 construct: Pooled human microsomes and selective CYP probe substrates were used; from tissue; host or cells: pooled human liver microsomes
T1 sequence (P05177 1-516): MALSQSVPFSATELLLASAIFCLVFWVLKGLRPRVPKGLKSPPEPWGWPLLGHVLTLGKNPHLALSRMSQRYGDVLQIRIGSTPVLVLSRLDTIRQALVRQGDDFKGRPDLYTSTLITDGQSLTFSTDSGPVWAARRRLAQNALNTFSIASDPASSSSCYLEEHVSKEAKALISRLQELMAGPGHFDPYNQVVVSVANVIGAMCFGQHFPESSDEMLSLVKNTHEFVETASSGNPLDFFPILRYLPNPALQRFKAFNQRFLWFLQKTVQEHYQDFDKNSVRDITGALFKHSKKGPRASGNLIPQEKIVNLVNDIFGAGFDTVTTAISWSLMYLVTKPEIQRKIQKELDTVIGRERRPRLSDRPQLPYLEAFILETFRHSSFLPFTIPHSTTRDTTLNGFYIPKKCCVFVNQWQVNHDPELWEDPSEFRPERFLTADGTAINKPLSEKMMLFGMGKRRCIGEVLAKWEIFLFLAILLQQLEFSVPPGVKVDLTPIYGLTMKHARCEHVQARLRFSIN
Method: (§1) An assessment of the time-dependent Inhibitory Potential of the test compounds against Principal Human Cytochrome P450 Isozymes using Human Liver Microsomes was also carried out using standard methods (Grimm et al, Drug Metab. Dispos., July; 37(7):1355-70. doi: 10.1124/dmd.109.026716, 2009). Pooled human microsomes and selective CYP probe substrates were used for in vitro assessment of test compounds at 25 and 50 μM as time-dependent inhibitors of […] human hepatic cytochrome P450 isozymes (CYP1A2, 2B6, 2C9, 2C19, 2D6, and 3A4). LC-MS/MS was used to quantify metabolite formation. The inhibition of each P450 enzyme in human liver microsomes was measured as the percentage decrease in the activity of marker metabolite formation as measured by LC-MS/MS compared to non-inhibited controls (=100% activity) at time zero and after 30 minutes incubation. The occurrence of any time dependent inhibition was then expressed as the fold change in enzyme activity at time zero relative to the activity after 30 minutes incubation.

CYP2B6 = molecular target: T2, CYP2B6 (Homo sapiens, UniProt P20813); assay: Time-dependent inhibition of CYP2B6 in human liver microsomes; type: in vitro ADME; details: fold change
T2 construct: Pooled human microsomes and selective CYP probe substrates were used; from tissue; host or cells: pooled human liver microsomes
T2 sequence (P20813 1-491): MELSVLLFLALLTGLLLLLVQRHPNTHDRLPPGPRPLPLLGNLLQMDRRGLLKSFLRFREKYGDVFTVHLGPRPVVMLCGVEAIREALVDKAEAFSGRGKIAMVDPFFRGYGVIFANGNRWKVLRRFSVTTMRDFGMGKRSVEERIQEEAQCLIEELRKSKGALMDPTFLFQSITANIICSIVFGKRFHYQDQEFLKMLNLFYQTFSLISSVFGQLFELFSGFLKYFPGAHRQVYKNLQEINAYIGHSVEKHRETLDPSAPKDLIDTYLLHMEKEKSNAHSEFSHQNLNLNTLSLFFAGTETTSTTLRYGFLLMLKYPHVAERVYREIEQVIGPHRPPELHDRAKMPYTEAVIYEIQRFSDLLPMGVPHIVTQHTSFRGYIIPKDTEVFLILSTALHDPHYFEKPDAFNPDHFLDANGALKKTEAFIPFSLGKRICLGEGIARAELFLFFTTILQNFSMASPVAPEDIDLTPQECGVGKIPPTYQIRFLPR
Method: as §1

CYP2D6 = molecular target: T3, CYP2D6 (Homo sapiens, UniProt P10635); assay: Time-dependent inhibition of CYP2D6 in human liver microsomes; type: in vitro ADME; details: fold change
T3 construct: Pooled human microsomes and selective CYP probe substrates were used; from tissue; host or cells: pooled human liver microsomes
T3 sequence (P10635 whole entry): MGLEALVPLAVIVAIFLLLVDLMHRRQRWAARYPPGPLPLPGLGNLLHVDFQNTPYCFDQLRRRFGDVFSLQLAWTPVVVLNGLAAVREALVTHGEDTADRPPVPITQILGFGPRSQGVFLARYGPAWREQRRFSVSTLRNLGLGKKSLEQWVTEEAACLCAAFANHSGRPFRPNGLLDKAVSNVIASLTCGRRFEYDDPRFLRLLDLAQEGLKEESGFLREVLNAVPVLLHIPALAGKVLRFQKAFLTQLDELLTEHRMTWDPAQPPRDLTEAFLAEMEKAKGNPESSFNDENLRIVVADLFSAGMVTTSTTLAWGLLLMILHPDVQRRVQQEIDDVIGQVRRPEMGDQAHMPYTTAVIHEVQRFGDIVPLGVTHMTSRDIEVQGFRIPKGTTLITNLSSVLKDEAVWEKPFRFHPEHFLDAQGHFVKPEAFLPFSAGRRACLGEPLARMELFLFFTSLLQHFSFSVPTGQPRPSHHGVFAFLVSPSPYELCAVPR
Method: as §1

CYP3A4 = molecular target: T4, CYP3A4 (Homo sapiens, UniProt P08684); assay: Time-dependent inhibition of CYP3A4 in human liver microsomes (testosterone and midazolam probes); type: in vitro ADME; details: fold change
T4 construct: Pooled human microsomes and selective CYP probe substrates were used; from tissue; host or cells: pooled human liver microsomes
T4 sequence (P08684 whole entry): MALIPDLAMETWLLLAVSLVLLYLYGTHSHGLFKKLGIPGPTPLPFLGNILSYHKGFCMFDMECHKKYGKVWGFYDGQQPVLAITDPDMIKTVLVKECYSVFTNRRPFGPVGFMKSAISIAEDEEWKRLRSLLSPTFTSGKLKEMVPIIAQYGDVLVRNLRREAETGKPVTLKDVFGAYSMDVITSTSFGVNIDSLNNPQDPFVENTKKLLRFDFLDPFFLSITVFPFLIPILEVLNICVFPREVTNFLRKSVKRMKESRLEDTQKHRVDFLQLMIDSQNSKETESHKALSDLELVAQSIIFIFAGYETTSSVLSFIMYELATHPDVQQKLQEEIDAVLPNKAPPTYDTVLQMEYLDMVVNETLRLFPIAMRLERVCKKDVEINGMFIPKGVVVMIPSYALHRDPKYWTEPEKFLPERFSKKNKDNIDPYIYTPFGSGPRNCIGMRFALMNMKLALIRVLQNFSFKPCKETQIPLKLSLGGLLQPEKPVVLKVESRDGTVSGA
Method: as §1

Which “CDMF IC15” value [1] does the source give for `C[C@H]1CC[C@H](N2CC(=O)N(Cc3ccc(F)c(F)c3)C3(CN(C=O)C3)C2=O)CC1` [Compound 4, 5-(3,4-difluorobenzyl)-8-((1r,4r)-4-methylcyclohexyl)-6,9-dioxo-2,5,8-triazaspiro[3.5]nonane-2-carbaldehyde] here?
The value was 1.5 µM.

What about the “t l/2” value [2] of the same molecule?
Its value is 8.69 h.

And the “(% Activity NADPH T0)/(% Activity NADPH T30)” value (CYP1A2; CYP1A2, 25 μM)?
Its value is 1.1.

What about the “(% Activity NADPH T0)/(% Activity NADPH T30)” value (CYP1A2; CYP1A2, 50 μM) of the same molecule?
The value was 1.0.

What about the “(% Activity NADPH T0)/(% Activity NADPH T30)” value (CYP2B6; CYP2B6, 25 μM) of the same molecule?
Its value is 1.1.

What about the “(% Activity NADPH T0)/(% Activity NADPH T30)” value (CYP2B6; CYP2B6, 50 μM) of the same molecule?
Its value is 1.0.

What about the “(% Activity NADPH T0)/(% Activity NADPH T30)” value (CYP2D6; CYP2D6, 25 μM) of the same molecule?
The value was 1.3.

What about the “(% Activity NADPH T0)/(% Activity NADPH T30)” value (CYP2D6; CYP2D6, 50 μM) of the same molecule?
Its value is 1.1.

And the “(% Activity NADPH T0)/(% Activity NADPH T30)” value (CYP2D6; CYP2D6, 50 μM, listed as compound 4)?
The value was “no change in activity”.

And the “(% Activity NADPH T0)/(% Activity NADPH T30)” value (CYP3A4; CYP3A4-M (midazolam probe substrate), 25 μM)?
Its value is 0.8.

What about the “(% Activity NADPH T0)/(% Activity NADPH T30)” value (CYP3A4; CYP3A4-M (midazolam probe substrate), 50 μM) of the same molecule?
The value was 0.7.

What about the “(% Activity NADPH T0)/(% Activity NADPH T30)” value (CYP3A4; CYP3A4-T (testosterone probe substrate), 25 μM) of the same molecule?
Its value is 0.9.

And the “(% Activity NADPH T0)/(% Activity NADPH T30)” value (CYP3A4; CYP3A4-T (testosterone probe substrate), 50 μM)?
Its value is 0.8.
